Source: patent US9028845B2, “Chimeric immunomodulatory compounds and methods of using the same-IV” (Dynavax Technologies Corporation, priority 2001, dated 2015)

Columns and labels:
PBMCs = assay: Human PBMC proliferation assay (3H-thymidine incorporation); type: cell-based; conditions: Experiment A; for mean cpm: 2 μg/ml
CD19+ B cells = assay: Human B cell proliferation assay (3H-thymidine incorporation); conditions: 2 μg/ml; for cpm1 / cpm2 / cpm3 / mean cpm / mean of both: B cells
human PBMCs = assay: Human PBMC cytokine response assay (IFN-γ and IFN-α in cell-free medium by ELISA), with or without cPLGA; type: cell-based;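 on IFN-α (pg/ml) mean: 20 µg/mL compound for 24 hours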;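 on IFN-γ (pg/ml) mean: 20 µg/mL compound for 24 hours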
[1] = Table 24, mean of donors 28234-28237
[2] = donor 28066, 20 ug/ml, 24 h, + PLGA = premixed with 100 μg/ml cPLGA
[3] = donor 28067, 20 ug/ml, 24 h, + PLGA = premixed with 100 μg/ml cPLGA
[4] = donor 28068, 20 ug/ml, 24 h, + PLGA = premixed with 100 μg/ml cPLGA
[5] = mean of donors 110, 112, 119, 120, Table 14
[6] = mean of donors 28065-28068, 20 ug/ml, 24 h, + PLGA = premixed with 100 μg/ml cPLGA
[7] = mean of donors 28185-28188, Table 15

(5′-TCGTCGA-3′)2-glycerol-5′-TCGTCGA-3′ [Compound C-28]
cpm1 (PBMCs; Donor 146, 2 μg/ml): 94977 cpm
cpm2 (PBMCs; Donor 146, 2 μg/ml): 121595 cpm
cpm3 (PBMCs; Donor 146, 2 μg/ml): 84977 cpm
mean cpm (PBMCs; Donor 146 mean): 100516 cpm
cpm1 (PBMCs; Donor 147, 2 μg/ml): 103916 cpm
cpm2 (PBMCs; Donor 147, 2 μg/ml): 91439 cpm
cpm3 (PBMCs; Donor 147, 2 μg/ml): 100905 cpm
mean cpm (PBMCs; Donor 147 mean): 98753 cpm
mean of both (PBMCs; mean of Donors 146 and 147, 2 μg/ml): 99635 cpm
B cell proliferation, in words (CD19+ B cells; 48 h plus 8 h 3H-thymidine pulse): cause B cells to proliferate
cpm1 (CD19+ B cells; Donor 146, Experiment A): 50999 cpm
cpm2 (CD19+ B cells; Donor 146, Experiment A): 54630 cpm
cpm3 (CD19+ B cells; Donor 146, Experiment A): 46418 cpm
mean cpm (CD19+ B cells; Donor 146 mean, Experiment A): 50682 cpm
cpm1 (CD19+ B cells; Donor 147, Experiment A): 65593 cpm
cpm2 (CD19+ B cells; Donor 147, Experiment A): 51040 cpm
cpm3 (CD19+ B cells; Donor 147, Experiment A): 50357 cpm
mean cpm (CD19+ B cells; Donor 147 mean, Experiment A): 55663 cpm
cpm1 (CD19+ B cells; donor 121, Experiment B): 35393 cpm
cpm2 (CD19+ B cells; donor 121, Experiment B): 26954 cpm
cpm3 (CD19+ B cells; donor 121, Experiment B): 26780 cpm
mean cpm (CD19+ B cells; donor 121 mean, Experiment B): 29709 cpm
cpm1 (CD19+ B cells; donor 194, Experiment B): 21588 cpm
cpm2 (CD19+ B cells; donor 194, Experiment B): 13691 cpm
cpm3 (CD19+ B cells; donor 194, Experiment B): 15691 cpm
mean cpm (CD19+ B cells; donor 194 mean, Experiment B): 16990 cpm
mean of both (CD19+ B cells; mean of Donors 146 and 147, Experiment A): 53173 cpm
mean of both (CD19+ B cells; mean of donors 121 and 194, Experiment B): 23350 cpm
IFN-α (human PBMCs; Table 9, donor 28089): 0 pg/mL
IFN-γ (human PBMCs; Table 9, donor 28089): 14 pg/mL
IFN-α (human PBMCs; Table 9, donor 28090): 64 pg/mL
IFN-γ (human PBMCs; Table 9, donor 28090): 15 pg/mL
IFN-α (human PBMCs; Table 9, donor 28098): 42 pg/mL
IFN-γ (human PBMCs; Table 9, donor 28098): 183 pg/mL
IFN-α (human PBMCs; Table 9, donor 28099): 67 pg/mL
IFN-γ (human PBMCs; Table 9, donor 28099): 45 pg/mL
IFN-α mean (human PBMCs; Table 9, mean of donors): 43 pg/mL
IFN-γ mean (human PBMCs; Table 9, mean of donors): 64 pg/mL
IFN-α (human PBMCs; Table 24, donor 28234): 16 pg/mL
IFN-γ (human PBMCs; Table 24, donor 28234): 10 pg/mL
IFN-α (human PBMCs; Table 24, donor 28235): 16 pg/mL
IFN-γ (human PBMCs; Table 24, donor 28235): 14 pg/mL
IFN-α (human PBMCs; Table 24, donor 28236): 16 pg/mL
IFN-γ (human PBMCs; Table 24, donor 28236): 88 pg/mL
IFN-α (human PBMCs; Table 24, donor 28237): 16 pg/mL
IFN-γ (human PBMCs; Table 24, donor 28237): 1229 pg/mL
IFN-α mean (human PBMCs; [1]): 16 pg/mL
IFN-γ mean (human PBMCs; [1]): 335 pg/mL
IFN-α (human PBMCs; donor 110, Table 14): 38 pg/mL
IFN-γ (human PBMCs; donor 110, Table 14): 5564 pg/mL
IFN-α (human PBMCs; donor 112, Table 14): 4 pg/mL
IFN-γ (human PBMCs; donor 112, Table 14): 52 pg/mL
IFN-α (human PBMCs; donor 119, Table 14): 56 pg/mL
IFN-γ (human PBMCs; donor 119, Table 14): 44 pg/mL
IFN-α (human PBMCs; donor 120, Table 14): 26 pg/mL
IFN-γ (human PBMCs; donor 120, Table 14): 60 pg/mL
IFN-γ (pg/ml) 28065 (human PBMCs; donor 28065 (high background), 20 ug/ml, 24 h, + PLGA = premixed with 100 μg/ml cPLGA, 1000 = outside assay limits): 1082 pg/mL
IFN-α (pg/ml) 28065 (human PBMCs; donor 28065, 20 ug/ml, 24 h, + PLGA = premixed with 100 μg/ml cPLGA): 3 pg/mL
IFN-α (pg/ml) 28066 (human PBMCs; [2]): 0 pg/mL
IFN-γ (pg/ml) 28066 (human PBMCs; [2]): 5 pg/mL
IFN-α (pg/ml) 28067 (human PBMCs; [3]): 29 pg/mL
IFN-γ (pg/ml) 28067 (human PBMCs; [3]): 42 pg/mL
IFN-α (pg/ml) 28068 (human PBMCs; [4]): 52 pg/mL
IFN-γ (pg/ml) 28068 (human PBMCs; [4]): 410 pg/mL
IFN-a (human PBMCs; donor 28185, Table 15): 14 pg/mL
IFN-g (human PBMCs; donor 28185, Table 15): 162 pg/mL
IFN-a (human PBMCs; donor 28186, Table 15): 4 pg/mL
IFN-g (human PBMCs; donor 28186, Table 15): 24 pg/mL
IFN-a (human PBMCs; donor 28187, Table 15): 0 pg/mL
IFN-g (human PBMCs; donor 28187, Table 15): 75 pg/mL
IFN-a (human PBMCs; donor 28188, Table 15): 4 pg/mL
IFN-g (human PBMCs; donor 28188, Table 15): 5 pg/mL
IFN-α (pg/ml) mean (human PBMCs; [5]): 31 pg/mL
IFN-γ (pg/ml) mean (human PBMCs; [5]): 1430 pg/mL
IFN-α (pg/ml) mean (human PBMCs; [6]): 21 pg/mL
IFN-γ (pg/ml) mean (human PBMCs; [6]): 385 pg/mL
IFN-a (pg/ml) mean (human PBMCs; [7]): 6 pg/mL
IFN-g (pg/ml) mean (human PBMCs; [7]): 66 pg/mL
IFN-a (pg/ml) ×2 (human PBMCs; mean ×2, Table 15): 11 pg/mL
IFN-g (pg/ml) ×4 (human PBMCs; mean ×4, Table 15): 266 pg/mL
IFN-α induction, in words (human PBMCs; used alone): HEG (C-94)>TEG (C-103)>C3 (C-104)=no linker (C-28)
